Laboratory results from ChEMBL document CHEMBL3046639, “Syntheses of tetrahydronaphthalenes. Part II” (Tetrahedron, 1994).
Activity calls are given as the source filed them. The rule behind the calls is not given here.

Experiment: Pre-emergence herbicidal activity against narrowleaf weed at 0.5 lb/acre
Assay type: functional
In the case of CCSc1c([N+](=O)[O-])cc2c(c1[N+](=O)[O-])CCCC2(C)C, the Activity is reported as “inactive”.
For CCCN(CCC)c1c([N+](=O)[O-])cc2c(c1[N+](=O)[O-])CCCC2(C)C, the Activity was “inactive”.
In the case of COc1cc(OC)c2c(c1)C(C)(C)CCC2, the Activity is reported as “inactive”.
In the case of COC(=O)c1cc2c(cc1OC)CCCC2(C)C, the Activity is reported as “inactive”.
In the case of CN(C)c1cc2c(cc1[N+](=O)[O-])C(C)(C)CCC2, the Activity is reported as “inactive”.
With CC1CCCc2c1cc([N+](=O)[O-])c(F)c2[N+](=O)[O-] (configuration not stated) the Activity was “inactive”.
In the case of COc1ccc(C(C)=O)c2c1C(C)(C)CCC2, the Activity is reported as “inactive”.
In the case of CN(C)c1c([N+](=O)[O-])cc2c(c1[N+](=O)[O-])CCCC2(C)C, the Activity is reported as “inactive”.
For COc1c([N+](=O)[O-])cc([N+](=O)[O-])c2c1C(C)(C)CCC2, the Activity was “inactive”.
For CCC(=O)c1c(C)cc2c(c1C)CCCC2(C)C, the Activity was “inactive”.
In the case of CCC(CC)Nc1c([N+](=O)[O-])cc2c(c1[N+](=O)[O-])CCCC2C (configuration not stated), the Activity is reported as “inactive”.
With Cc1cc2c(c(C)c1C(=O)N(C)C)CCCC2(C)C the Activity was “inactive”.
With COc1c2c(cc(F)c1C(C)=O)C(C)(C)CCC2 the Activity was “inactive”.
In the case of CCS(=O)(=O)c1c([N+](=O)[O-])cc2c(c1[N+](=O)[O-])CCCC2(C)C, the Activity is reported as “inactive”.
In the case of COC(=O)c1c(C)cc2c(c1C)CCCC2(C)C, the Activity is reported as “Active”.
With CC(C)C1(C)CCCc2c1cc([N+](=O)[O-])c(F)c2[N+](=O)[O-] (configuration not stated) the Activity was “inactive”.
With CC1CCCc2cc(F)ccc21 (configuration not stated) the Activity was “inactive”.
For CCCC1(CCC)CCCc2c1cc([N+](=O)[O-])c(F)c2[N+](=O)[O-], the Activity was “inactive”.
For CCCC1(CCC)CCCc2c1cc([N+](=O)[O-])c(N(C)C)c2[N+](=O)[O-], the Activity was “inactive”.
With COc1c([N+](=O)[O-])cc2c(c1[N+](=O)[O-])CCCC2(C)C(C)C (configuration not stated) the Activity was “inactive”.
With CCCCOC(=O)c1c(C)cc2c(c1C)CCCC2(C)C the Activity was “inactive”.
For CC1(C)CCCc2c(F)cc(F)cc21, the Activity was “inactive”.
With CCC(CC)Nc1c([N+](=O)[O-])cc2c(c1[N+](=O)[O-])CCCC2(C)C the Activity was “Active”.
In the case of CCNc1c([N+](=O)[O-])cc2c(c1[N+](=O)[O-])CCCC2(C)C, the Activity is reported as “inactive”.
For COc1cc2c(cc1C(C)=O)C(C)(C)CCC2, the Activity was “inactive”.
With CC1(C)CCCc2c1cc([N+](=O)[O-])c(F)c2[N+](=O)[O-] the Activity was “inactive”.
With O=[N+]([O-])c1cc2c(c([N+](=O)[O-])c1F)CCCC21CCCCC1 the Activity was “inactive”.
For CC1(C)CCCc2cc(F)c([N+](=O)[O-])cc21, the Activity was “inactive”.
For CC(C)C1(C)CCCc2cc(F)ccc21 (configuration not stated), the Activity was “inactive”.
With Cc1cc2c(c(C)c1C(=O)C(Br)(Br)Br)CCCC2(C)C the Activity was “inactive”.
With CC(C)c1cc(C(C)C)c2c(c1)C(C)(C)CCC2 the Activity was “inactive”.
For COc1c([N+](=O)[O-])cc2c(c1[N+](=O)[O-])CCCC2(C)C, the Activity was “inactive”.
With CCOC(=O)c1c(C)cc2c(c1C)CCCC2(C)C the Activity was “inactive”.
With CC(=O)c1c(C)cc2c(c1C)CCCC2(C)C the Activity was “inactive”.
With Cc1cc2c(c(C)c1C(=O)O)CCCC2(C)C the Activity was “inactive”.
In the case of CC1(C)CCCc2c([N+](=O)[O-])cc([N+](=O)[O-])c(F)c21, the Activity is reported as “inactive”.
With COC(=O)c1ccc(OC)c2c1CCCC2(C)C the Activity was “inactive”.
For CN(C)c1c([N+](=O)[O-])cc([N+](=O)[O-])c2c1C(C)(C)CCC2, the Activity was “inactive”.
With Cc1cc(C)c2c(c1)C(C)(C)CCC2 the Activity was “inactive”.
For CCC(CC)Nc1c([N+](=O)[O-])cc2c(c1[N+](=O)[O-])CCCC21CCCCC1, the Activity was “inactive”.
With CN(C)c1c([N+](=O)[O-])cc2c(c1[N+](=O)[O-])CCCC21CCCCC1 the Activity was “inactive”.
With CC(C)C1(C)CCCc2c1cc([N+](=O)[O-])c(N(C)C)c2[N+](=O)[O-] (configuration not stated) the Activity was “inactive”.
In the case of CNc1c([N+](=O)[O-])cc2c(c1[N+](=O)[O-])CCCC2(C)C, the Activity is reported as “inactive”.
For CCN(CC)c1c([N+](=O)[O-])cc2c(c1[N+](=O)[O-])CCCC2(C)C, the Activity was “inactive”.
In the case of Fc1ccc2c(c1)CCCC21CCCCC1, the Activity is reported as “inactive”.
With COc1cc2c(cc1C(=O)O)C(C)(C)CCC2 the Activity was “inactive”.
For CCC(CC)Nc1c([N+](=O)[O-])cc2c(c1[N+](=O)[O-])CCCC2(C)C(C)C (configuration not stated), the Activity was “inactive”.
With CC(=O)c1c(F)cc2c(c1F)CCCC2(C)C the Activity was “inactive”.
With CCCC1(CCC)CCCc2cc(F)ccc21 the Activity was “inactive”.
In the case of COc1ccc(C(=O)O)c2c1C(C)(C)CCC2, the Activity is reported as “inactive”.
In the case of CCCC1(CCC)CCCc2cc(N(C)C)c([N+](=O)[O-])cc21, the Activity is reported as “inactive”.
In the case of CCCC1(CCC)CCCc2c1cc([N+](=O)[O-])c(NC(CC)CC)c2[N+](=O)[O-], the Activity is reported as “inactive”.
